From patent US8569376B2, “Methods and compositions for reducing body fat and adipocytes” (Topokine Therapeutics, Inc., priority 2011, dated 2013)
“Also recorded” adds a separate entry of the source. Marks after values point to notes of the source that are not given here.

Assays:
[1] = Randomized controlled trial in (db-/db-) mice, topical to flank: body weight change; assay type: in vivo, mouse; settings: 21-day study; for Absolute weight change / Relative weight change: 5 mM topical, 0.1 cc to flank daily
Procedure: (§1) A randomized controlled trial was conducted on (db-/db-) mice. Mice six weeks old were prospectively randomized into groups and assigned to the following treatment conditions (n=5 animals per group): [table] At the start of the study, hair on the right flank of each animal was clipped and depilated. Animals were kept in identical conditions and fed ab libitum. Animals were weighed daily. Following 21 consecutive days of treatment, samples of skin and adjacent fat were obtained from the treated flanks, fixed in formalin, and stained with hematoxylin and eosin for histologic examination.

[2] = system: adipose tissue and adipocytes; test: Randomized controlled trial in (db-/db-) mice: histologic examination of treated skin and subcutaneous fat; assay type: in vivo, mouse; settings: treated flank, after 21 days of 5 mM topical treatment
Procedure: as §1

[3] = system: human preadipocytes; settings: human preadipocytes in primary cell culture; cited from earlier work
[4] = system: peroxisome proliferator-activated receptor-gamma (PPARγ), CCAAT-enhancer-binding protein α (C/EBPα), and lipoprotein lipase; settings: human preadipocytes; no statistical differences; cited from earlier work
[5] = system: dorsocervical fat pad; test: Randomized double-blind study in HIV lipodystrophy subjects, dorsocervical fat by US/CT; assay type: in vivo; settings: human, e.g. 0.03% in transdermal vehicle once a day, e.g. after 3 months
From the text: The following experiment describes a randomized, double-blind study in human subjects to test whether locally administered Tafluprost reduces fat in the dorsocervical fat pad of HIV-seropositive patients on antiretroviral therapy who are suffering from HIV lipodystrophy. Eligible subjects (for example, n=40) with HIV lipodystrophy and abnormal accumulation of fat on the dorsal neck are entered into a randomized double-blind study. Subjects are randomized in 1:1 fashion to receive either Tafluprost, for example, 0.03%, in a suitable transdermal vehicle, or vehicle alone. The vehicle is, for example, Lipoderm® (PCCA, Houston, Tex.). Unit-dose syringes (for example, 0.5 ml per syringe) are furnished to subjects by a study pharmacist; syringes are unlabeled as to the presence of Tafluprost or vehicle. Subjects are instructed to apply, once a day, the contents of one syringe to the affected area on the back of the neck. Serial ultrasound (US) and/or computed tomography (CT) scans are conducted at the beginning of the study and then at monthly intervals. Treatment continues for 6 months.

Structure (SMILES)	Absolute weight change [1]	Relative weight change [1]	weight gain ([1]; topical)	adipose thickness and adipocyte size in histologic sections, compared to Vehicle [2]	adipocyte differentiation [3]	inhibition of expression of adipogenic genes PPARγ, C/EBPα and lipoprotein lipase [4]	weight loss ([1]; topical)	reduction in depth and/or cross-sectional area of dorsocervical fat by serial US or CT, compared to vehicle alone [5]
CCNC(=O)CCC/C=C\C[C@@H]1[C@@H](/C=C/[C@@H](O)CCc2ccccc2)[C@H](O)C[C@@H]1O [Bimatoprost]	6.4 g	22.9% over Day 0	23-24 % of baseline body weight	did not show these effects	30 % of control	slightly more inhibition than Tafluprost	–	–
CC(C)OC(=O)CCC/C=C\C[C@@H]1[C@@H](/C=C/C(F)(F)COc2ccccc2)[C@H](O)C[C@@H]1O [Tafluprost]	−2.4* g	−8.2% over Day 0	–	reduced adipose thickness and adipocyte size; also recorded: inhibited adipose tissue and adipocytes	40 % of control	–	about 8 % of baseline body weight	more reduction in the depth and/or cross-sectional area of dorsocervical fat
